Source: patent US10064885B2, “Metabolic gene, enzyme, and flux targets for cancer therapy” (Massachusetts Institute of Technology, priority 2010, dated 2018)

Columns and labels:
Type in all cases: cell-based, human
A549 cells [1] = experiment: 13C Metabolic Flux Analysis (MFA) of A549 cells expressing IDH1-targeting shRNAs, [U-13C5]glutamine tracer
Experimental: (§1) Cell Culture, Isotopic Labeling, and Hypoxia. All cell lines were cultured in Dulbecco's Modified Eagle Medium (DMEM; Mediatech) containing 10% fetal bovine serum (FBS; Invitrogen) and 100 U/ml penicillin/streptomycin (P/S; Mediatech) unless otherwise mentioned. Cell lines were obtained from ATCC unless otherwise noted. The VC3 glioma cell line was provided by Tim Lautenschlaeger (Ohio State University), MDA-MB-231 and HCT116 cell lines were provided by Ferdinando Chiaradonna (University of Milano-Bicocca), MRC5 cells were provided by Stephen Lippard (MIT), SN12C, ACHN, and 786-O cells were provided by Kevin Courtney and Lew Cantley (Harvard Medical School), and MCF10A cells were provided by Joan Brugge (Harvard Medical School), and Huh7 cells were provided by Mike Hemann (MIT). MCF10A cells were cultured in custom DMEM/F12 (Hyclone) containing 5% horse serum, 20 ng/ml EGF, 10 μg/ml insulin, 100 ng/ml cholera toxin, 0.5 mg/ml hydrocortisone, 100 U/ml penicillin/streptomycin, and labeled/unlabeled glucose and glutamine at 18 mM and 2.5 mM, respectively. PRC3, WT8, pTV, and pTR cell lines were subcloned from the 786-O cell line as previously described (42, 43). For isotopic labeling experiments, cells were cultured in 6 well plates in glucose- and glutamine-free DMEM (Sigma) containing 10% dialyzed FBS (Invitrogen), 100 U/ml P/S, naturally labeled glucose or glutamine, and the appropriate tracer, including [U-^13C5]glutamine (Isotec), [5-^13C]glutamine (C/D/N Isotopes), [1-^13C]glutamine, [U-^13C6]glucose, [1,2-^13C2]glucose (all from Cambridge Isotope Labs). Steady state labeling of organic and amino acids was accomplished by culturing subconfluent cells in tracer medium for 24 hours. Labeling of fatty acids for Isotopomer Spectral Analysis (USA) was conducted over 3-5 days of culture in an excess of tracer medium (3-4 ml/well in a 6 well plate) to prevent nutrient depletion. Hypoxic culture was conducted by feeding a custom mixture of 1% O2, 5% CO2, and 94% N2 to a standard incubator controlled at 5% CO2. HEPES (Mediatech) was added to the culture medium at 20 mM to maintain pH between normoxic and hypoxic cultures. The internal gas content was monitored using Fyrite gas analyzers (Bacharach) for CO2 and O2. O2 levels were confirmed at 1.5-2% during hypoxic culture.
Stable cell cultures with decreased IDH1 and IDH2 expression were generated via lentiviral-mediated shRNA expression. pLKO.1 lentiviral vectors targeting IDH1 with shRNA sequences of […] TT (IDH1a; TRCN0000027298; SEQ ID NO:1) and […] TT (IDH1b; TRCN0000027289; SEQ ID NO:2), IDH2 with shRNA sequence […] TT (TRCN0000027225; SEQ ID NO:3). For controls, either non-targeting control shRNA (SHC002; Sigma) or pLKO.1 scrambled control vector (44)(Addgene) were used. pLKO.1 vector targeting ARNT with shRNA sequence […] TT (TRCN0000003819; SEQ ID NO:4) was obtained from Open Biosystems.
HEK293T cells were co-transfected with pLKO.1 vectors and packaging plasmids to produce lentivirus. Filtered supernatants were used for infection, and cells were selected with puromycin (2 μg/ml) for at least two passages before initiating tracer and flux experiments.
Metabolite Extraction and Gas Chromatography/Mass Spectrometry (GC/MS) Analysis. At the conclusion of culture, cells were rinsed with 1 ml ice cold PBS and quenched with 0.4 ml ice cold methanol. An equal volume of water was added, and cells were collected in tubes by scraping with a pipette. One volume of ice cold chloroform was added to each tube, and the extracts were vortexed at 4° C. for 30 minutes. Samples were centrifuged at 14,000 g for 5 minutes at room temperature. For analysis of polar metabolites, the aqueous phase was transferred to a new tube for evaporation under airflow. For ISA experiments, the non-polar fraction was collected and evaporated under airflow. In some ISA experiments, cells were trypsinized, counted, and pelleted prior to lipid extraction as described above. […]

HCT116 colon carcinoma = experiment: Reductive carboxylation by [1-13C]glutamine labeling and GC/MS in HCT116 cells expressing shRNAs
Experimental: as §1, with “Labeling of fatty acids for Isotopomer Spectral Analysis (USA) was conducted over 3-5 days of culture in an excess of tracer medium (3-4 ml/well in a 6 well plate) to prevent nutrient depletion. Hypoxic culture was conducted by feeding a custom mixture of 1% O2, 5% CO2, and 94% N2 to a standard incubator controlled at 5% CO2. HEPES (Mediatech) was added to the culture medium at 20 mM to maintain pH between normoxic and hypoxic cultures.” left out, “O2 levels were confirmed at 1.5-2% during hypoxic culture.” left out
(§2) Metabolite Extraction and Gas Chromatography/Mass Spectrometry (GC/MS) Analysis. […] In some ISA experiments, cells were trypsinized, counted, and pelleted prior to lipid extraction as described above. […]

A549 cells [2] = experiment: Reductive glutamine metabolism by isotopic labeling and GC/MS in A549 cells expressing shRNAs; conditions: [U-13C5]glutamine, aspartate, malate, fumarate
Experimental: as §1, with “Labeling of fatty acids for Isotopomer Spectral Analysis (USA) was conducted over 3-5 days of culture in an excess of tracer medium (3-4 ml/well in a 6 well plate) to prevent nutrient depletion. Hypoxic culture was conducted by feeding a custom mixture of 1% O2, 5% CO2, and 94% N2 to a standard incubator controlled at 5% CO2. HEPES (Mediatech) was added to the culture medium at 20 mM to maintain pH between normoxic and hypoxic cultures.” left out, “O2 levels were confirmed at 1.5-2% during hypoxic culture.” left out
as §2

143B osteosarcoma = experiment: Reductive carboxylation by [1-13C]glutamine labeling and GC/MS in 143B cells expressing shRNAs
Experimental: Cell Culture, Isotopic Labeling, and Hypoxia. All cell lines were cultured in Dulbecco's Modified Eagle Medium (DMEM; Mediatech) containing 10% fetal bovine serum (FBS; Invitrogen) and 100 U/ml penicillin/streptomycin (P/S; Mediatech) unless otherwise mentioned. Cell lines were obtained from ATCC unless otherwise noted. The VC3 glioma cell line was provided by Tim Lautenschlaeger (Ohio State University), MDA-MB-231 and HCT116 cell lines were provided by Ferdinando Chiaradonna (University of Milano-Bicocca), MRC5 cells were provided by Stephen Lippard (MIT), SN12C, ACHN, and 786-O cells were provided by Kevin Courtney and Lew Cantley (Harvard Medical School), and MCF10A cells were provided by Joan Brugge (Harvard Medical School), and Huh7 cells were provided by Mike Hemann (MIT). MCF10A cells were cultured in custom DMEM/F12 (Hyclone) containing 5% horse serum, 20 ng/ml EGF, 10 μg/ml insulin, 100 ng/ml cholera toxin, 0.5 mg/ml hydrocortisone, 100 U/ml penicillin/streptomycin, and labeled/unlabeled glucose and glutamine at 18 mM and 2.5 mM, respectively. […] The internal gas content was monitored using Fyrite gas analyzers (Bacharach) for CO2 and O2. […]
as §2

[3] = tested on: MDA-MB-231 breast carcinoma; experiment: Reductive carboxylation by [1-13C]glutamine labeling and GC/MS in MDA-MB-231 cells expressing shRNAs
Experimental: as §1, with “Labeling of fatty acids for Isotopomer Spectral Analysis (USA) was conducted over 3-5 days of culture in an excess of tracer medium (3-4 ml/well in a 6 well plate) to prevent nutrient depletion. Hypoxic culture was conducted by feeding a custom mixture of 1% O2, 5% CO2, and 94% N2 to a standard incubator controlled at 5% CO2. HEPES (Mediatech) was added to the culture medium at 20 mM to maintain pH between normoxic and hypoxic cultures.” left out, “O2 levels were confirmed at 1.5-2% during hypoxic culture.” left out
as §2

[4] = tested on: Hypoxia response element- (HRE-) driven reporter; experiment: Hypoxia response element (HRE)-driven reporter in HCT116 cells expressing IDH1-targeting shRNAs; conditions: normal culture, hypoxia, or 1 mM DMOG, 18 hours
Experimental: Luciferase Assays. Subconfluent cells in 6 well plates were co-transfected with 1 μg of a firefly luciferase vector and 50 ng Renilla luciferase vector (pRL-TK; Promega) using Fugene 6 reagent. The ODD-Luciferase and Luciferase vectors were obtained from Addgene and based off of the pcDNA3.1 vector (49). Hypoxia responsive element-luciferase (HRE-Luc) vectors were used as described (50). Approximately 24 hours after transfection, medium was changed and cells were placed under normoxia, hypoxia, or treated with 1 mM dimethyloxalylglycine (DMOG). After 18 hours of treatment, cells were lysed and luciferase activity was determined using the Dual Luciferase Reporter Assay system (Promega) according to the manufacturer's instructions.

[5] = Anaplerotic reactions, exchange flux
[6] = Anaplerotic reactions, net flux
[7] = Pentose Phosphate Pathway, exchange flux
[8] = Pentose Phosphate Pathway, net flux

Sequence: CCGGCGAATCATTTGGGAATTGATTCTCGAGAATCAATTCCCAAATGATTCGTTT TT (CCGGCGAATCATTTGGGAATTGATTCTCGAGAATCAATTCCCAAATGATTCGTTTTT; expressed or natural sequence) [IDH1b, pLKO.1 lentiviral vector shRNA targeting IDH1]
- Flux Pyr.m <−> Ala (A549 cells [1]; Amino acids, exchange flux): 0.00 fmol/cell*hr
- Flux Gln −> Glu (A549 cells [1]; Amino acids, net flux): 24.57 fmol/cell*hr
- Flux Gln.x −> Gln (A549 cells [1]; Amino acids, net flux): 25.06 fmol/cell*hr
- Flux Glu −> Glu.x (A549 cells [1]; Amino acids, net flux): 19.91 fmol/cell*hr
- Flux Pyr.m −> Ala (A549 cells [1]; Amino acids, net flux): 0.42 fmol/cell*hr
- Flux Glu <−> Akg (A549 cells [1]; [5]): 442.50 fmol/cell*hr
- Flux Mal <−> Pyr.m + CO2 (A549 cells [1]; [5]): 1.64 fmol/cell*hr
- Flux Oac <−> Asp (A549 cells [1]; [5]): 372.30 fmol/cell*hr
- Flux Glu −> Akg (A549 cells [1]; [6]): 4.16 fmol/cell*hr
- Flux Mal −> Pyr.m + CO2 (A549 cells [1]; [6]): 3.56 fmol/cell*hr
- Flux Oac −> Asp (A549 cells [1]; [6]): 0.60 fmol/cell*hr
- Flux Pyr.m + CO2 −> Oac (A549 cells [1]; [6]): 0.00 fmol/cell*hr
- Flux 0.6*Asp + 0.5*Glu + 0.42*Ala + 0.5*Gln −> Biomass (A549 cells [1]; Biomass, net flux): 1.00 fmol/cell*hr
- Flux AcCoA.c −> Fatty acids (A549 cells [1]; Biomass, net flux): 11.28 fmol/cell*hr
- Flux Cit −> AcCoA.c + Oac (A549 cells [1]; Biomass, net flux): 11.28 fmol/cell*hr
- Flux P5P −> NTP (A549 cells [1]; Biomass, net flux): 0.50 fmol/cell*hr
- Flux 0*Pyr.c −> Pyr.mnt (A549 cells [1]; Dilution/Mixing): 0.82 fmol/cell*hr
- Flux 0*Pyr.m −> Pyr.mnt (A549 cells [1]; Dilution/Mixing): 0.18 fmol/cell*hr
- Flux 0*Suc −> Suc.mnt (A549 cells [1]; Dilution/Mixing): 0.85 fmol/cell*hr
- Flux Suc.d −> Suc.mnt (A549 cells [1]; Dilution/Mixing): 0.15 fmol/cell*hr
- Flux Pyr.c <−> Pyr.m (A549 cells [1]; Dilution/Mixing, exchange flux): 49.63 fmol/cell*hr
- Flux Pyr.c −> Pyr.m (A549 cells [1]; Dilution/Mixing, net flux): 13.19 fmol/cell*hr
- Flux DHAP <−> GAP (A549 cells [1]; Glycolysis, exchange flux): 550.40 fmol/cell*hr
- Flux G6P <−> F6P (A549 cells [1]; Glycolysis, exchange flux): 0.00 fmol/cell*hr
- Flux GAP <−> 3PG (A549 cells [1]; Glycolysis, exchange flux): 160.00 fmol/cell*hr
- Flux Pyr.c <−> Lac (A549 cells [1]; Glycolysis, exchange flux): 695.70 fmol/cell*hr
- Flux 3PG −> Pyr.c (A549 cells [1]; Glycolysis, net flux): 217.80 fmol/cell*hr
- Flux DHAP −> GAP (A549 cells [1]; Glycolysis, net flux): 107.60 fmol/cell*hr
- Flux F6P −> DHAP + GAP (A549 cells [1]; Glycolysis, net flux): 107.60 fmol/cell*hr
- Flux G6P −> F6P (A549 cells [1]; Glycolysis, net flux): 102.60 fmol/cell*hr
- Flux GAP −> 3PG (A549 cells [1]; Glycolysis, net flux): 217.80 fmol/cell*hr
- Flux Glc.x −> G6P (A549 cells [1]; Glycolysis, net flux): 110.60 fmol/cell*hr
- Flux Lac −> Lac.x (A549 cells [1]; Glycolysis, net flux): 204.60 fmol/cell*hr
- Flux Pyr.c −> Lac (A549 cells [1]; Glycolysis, net flux): 204.60 fmol/cell*hr
- Flux P5P + E4P <−> F6P + GAP (A549 cells [1]; [7]): 1.9E+06 fmol/cell*hr
- Flux P5P + P5P <−> S7P + GAP (A549 cells [1]; [7]): 6.3E+07 fmol/cell*hr
- Flux S7P + GAP <−> F6P + E4P (A549 cells [1]; [7]): 1.1E+06 fmol/cell*hr
- Flux G6P −> P5P + CO2 (A549 cells [1]; [8]): 8.01 fmol/cell*hr
- Flux P5P + E4P −> F6P + GAP (A549 cells [1]; [8]): 2.50 fmol/cell*hr
- Flux P5P + P5P −> S7P + GAP (A549 cells [1]; [8]): 2.50 fmol/cell*hr
- Flux S7P + GAP −> F6P + E4P (A549 cells [1]; [8]): 2.50 fmol/cell*hr
- Flux Fum <−> Mal (A549 cells [1]; TCA Cycle, exchange flux): 1.6E+07 fmol/cell*hr
- Flux Mal <−> Oac (A549 cells [1]; TCA Cycle, exchange flux): 124.70 fmol/cell*hr
- Flux Suc <−> Fum (A549 cells [1]; TCA Cycle, exchange flux): 0.29 fmol/cell*hr
- Flux Cit <−> Akg + CO2 (A549 cells [1]; TCA Cycle, exchange flux (reductive IDH flux)): 2.39 fmol/cell*hr
- Flux AcCoA.m + Oac −> Cit (A549 cells [1]; TCA Cycle, net flux): 16.33 fmol/cell*hr
- Flux Akg −> Suc + CO2 (A549 cells [1]; TCA Cycle, net flux): 9.21 fmol/cell*hr
- Flux Fum −> Mal (A549 cells [1]; TCA Cycle, net flux): 9.21 fmol/cell*hr
- Flux Mal −> Oac (A549 cells [1]; TCA Cycle, net flux): 5.65 fmol/cell*hr
- Flux Pyr.m −> AcCoA.m + CO2 (A549 cells [1]; TCA Cycle, net flux): 16.33 fmol/cell*hr
- Flux Suc −> Fum (A549 cells [1]; TCA Cycle, net flux): 9.21 fmol/cell*hr
- Flux Cit −> Akg + CO2 (A549 cells [1]; TCA Cycle, net flux (IDH)): 5.05 fmol/cell*hr
- reductive carboxylation flux (M1 label from [1-13C]glutamine) (HCT116 colon carcinoma): reduces reductive carboxylation flux
- M3 mass isotopomers derived from [U-13C5]glutamine (reductive carboxylation) (A549 cells [2]): decrease in reductive carboxylation
- reductive carboxylation flux (143B osteosarcoma): reduces reductive carboxylation flux
- reductive carboxylation flux (M1 label from [1-13C]glutamine) [3]: reduces reductive carboxylation flux
- HRE-driven reporter levels (hypoxia signaling) [4]: does not increase hypoxia signaling and stabilization
